Data published in article PMC12373846, “Hemoglobin as a pseudoperoxidase and drug target for oxidative stress-related diseases” (Signal Transduction and Targeted Therapy, 2025).
“And” between values parts separate entries of the source, which are not always exact repeats. Equal values may be shown once. Read-outs that look alike come from different tables or passages of the source.

Assays:
APP/PS1 mice = assay: Hippocampal slice electrophysiology, APP/PS1 mice; format: in vivo, mouse; conditions: for tonic GABA current, granule cells: Fig. S10k; for sIPSC amplitude: Fig. S10l; for sIPSC frequency: Fig. S10m
Protocol: The mice were deeply anesthetized with 3% isoflurane followed by decapitation. The brain was quickly excised from the skull and submerged in a chilled cutting solution that contained 234 mM sucrose, 24 mM NaHCO3, 11 mM d(+)-glucose, 10 mM MgSO4, 2.5 mM KCl, […], and 0.5 mM CaCl2. Transverse hippocampi (300 µm thick) were prepared with a vibrating microtome (PRO7N; DSK) and transferred to an artificial cerebrospinal fluid (aCSF) solution that contained 130 mM NaCl, 24 mM NaHCO3, 1.25 mM NaH2PO4, 3.5 mM KCl, 1.5 mM CaCl2, 1.5 mM MgCl2, and 10 mM d(+)-glucose, pH 7.4. The slices were incubated at RT for at least 1 h before recording. All the solutions were saturated with 95% O2 and 5% CO2.
For recording of tonic GABA currents, slices were transferred to a recording chamber that was mounted on an upright Zeiss microscope and continuously perfused with aCSF solution. The slice was viewed with a 60× water immersion objective (numerical aperture = […]) with infrared differential interference contrast optics. […] Cellular morphology was visualized by a CMOS camera (Hamamatsu Photonics, Japan) and Imaging Workbench software (INDEC Biosystems). Whole-cell patch recordings were made from […] DG granule cells of the hippocampus. The holding potential was -70 mV. The pipette resistance was typically 6–8 MΩ, and the pipette was filled with an internal solution that contained (in mM): 135 CsCl; 4 NaCl; 0.5 CaCl2; 10 HEPES; 5 EGTA; 2 Mg-ATP; 0.5 Na2-GTP; 10 QX-314; pH adjusted to 7.2 with CsOH (278 to 285 mOsmol). The baseline current before the tonic current was measured was recorded with CNQX (20 µM) and D-AP5 (50 µM). The frequency and amplitude of spontaneous inhibitory postsynaptic currents before bicuculline (50 µM) administration were detected and measured via Mini Analysis (Synaptosoft, USA).
Dentate granule cell synaptic responses were elicited at a low frequency of 0.1 Hz by stimulating perforant path fibers. The stimulation was delivered over […] at intensities ranging from 0 to 1000 μA using a constant current isolation unit. A tungsten bipolar electrode was positioned in the molecular layer to stimulate the perforant path fibers. Recordings of the evoked excitatory postsynaptic potentials (EPSPs) […], and the pipette was filled with an internal solution that contained the following (in mM): 120 potassium gluconate; 10 KCl; 1 MgCl2; 0.5 EGTA; 40 HEPES; pH adjusted to 7.2 with KOH. The spiking probability was determined by the number of spikes generated per total stimulation. Electrical signals were digitized and sampled at […] with the Digidata 1550B data acquisition system and the Multiclamp 700B Amplifier (Molecular Devices, USA) via pClamp software.

[1] = biological target: T1, delta (DOP) (h) (agonist radioligand) (Homo sapiens, UniProt P41143); assay: SafetyScreen87 panel; conditions: 1.0E-06 M; mean; read-out: % Inhibition of Control Specific Binding (1st, 2nd, Mean)
T1 construct: purchased DiscoverX KINOMEscan scanEDGE; Eurofins Cerep SafetyScreen87
Protocol: (§1) The possibility of KDS12025 on kinase off-target, the KINOMEscan panel of scanEDGE assay was conducted in DiscoverX (CA, USA) using a site-directed competition binding with the test compounds. The assay results are given in Supplementary Table 4 and experimental information is available on the DiscoverX web page (www.discoverx.com). Moreover, the Delta SafetyScreen87 panel assay was conducted in Eurofins Discovery (Cerep, France). The assay results are given in Supplementary Table 5 and experimental information is available on the DiscoverX web page (https://www.eurofinsdiscoveryservices.com).

[2] = biological target: T2, CXCR2 (IL-8B) (h) (agonist radioligand) (Homo sapiens, UniProt P25025); assay: SafetyScreen87 panel
T2 construct: purchased DiscoverX KINOMEscan scanEDGE; Eurofins Cerep SafetyScreen87
T2 sequence (P25025 whole entry): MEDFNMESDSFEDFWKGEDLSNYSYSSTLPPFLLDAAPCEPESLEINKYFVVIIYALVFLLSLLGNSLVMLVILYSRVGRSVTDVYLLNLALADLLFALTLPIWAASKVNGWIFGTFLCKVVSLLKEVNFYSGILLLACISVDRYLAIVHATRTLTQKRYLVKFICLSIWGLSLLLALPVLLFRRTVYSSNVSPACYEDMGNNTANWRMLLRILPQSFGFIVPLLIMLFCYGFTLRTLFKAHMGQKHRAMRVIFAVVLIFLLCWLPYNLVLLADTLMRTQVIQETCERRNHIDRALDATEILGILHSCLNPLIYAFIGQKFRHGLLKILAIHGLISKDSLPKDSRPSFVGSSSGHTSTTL
Protocol: as §1

[3] = biological target: T3, A2A (h) (agonist radioligand) (Homo sapiens, UniProt P29274); assay: SafetyScreen87 panel; conditions: 1.0E-06 M, read-out: % Inhibition of Control Specific Binding (1st, 2nd, Mean)
T3 construct: purchased DiscoverX KINOMEscan scanEDGE; Eurofins Cerep SafetyScreen87
T3 sequence (P29274 whole entry): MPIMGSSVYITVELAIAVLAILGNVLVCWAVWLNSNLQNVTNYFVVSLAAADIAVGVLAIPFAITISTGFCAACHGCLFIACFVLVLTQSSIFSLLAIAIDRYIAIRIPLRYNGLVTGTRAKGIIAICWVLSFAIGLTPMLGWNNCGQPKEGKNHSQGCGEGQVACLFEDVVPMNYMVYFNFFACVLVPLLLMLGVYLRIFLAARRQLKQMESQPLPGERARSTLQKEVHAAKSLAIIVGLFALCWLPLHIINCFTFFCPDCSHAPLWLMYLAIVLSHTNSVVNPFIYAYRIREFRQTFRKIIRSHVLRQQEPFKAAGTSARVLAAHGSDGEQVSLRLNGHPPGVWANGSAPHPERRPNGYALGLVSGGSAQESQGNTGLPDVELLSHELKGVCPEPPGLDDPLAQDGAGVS
Protocol: as §1

[4] = biological target: T4, CCK1 (CCKA) (h) (agonist radioligand) (Homo sapiens, UniProt P32238); assay: SafetyScreen87 panel; conditions: 1.0E-06 M; read-out: % Inhibition of Control Specific Binding (1st, 2nd, Mean)
T4 construct: purchased DiscoverX KINOMEscan scanEDGE; Eurofins Cerep SafetyScreen87
Protocol: as §1

[5] = test system: GABA transporter (antagonist radioligand); assay: SafetyScreen87 panel; conditions: 1.0E-06 M, read-out: % Inhibition of Control Specific Binding (1st, 2nd, Mean)
Protocol: as §1

[6] = biological target: T5, CysLT1 (LTD4) (h) (agonist radioligand) (Homo sapiens, UniProt Q9Y271); assay: SafetyScreen87 panel; conditions: read-out: % Inhibition of Control Specific Binding (1st, 2nd, Mean); 1.0E-06 M
T5 construct: purchased DiscoverX KINOMEscan scanEDGE; Eurofins Cerep SafetyScreen87
Protocol: as §1

[7] = biological target: T6, N neuronal alpha 4beta 2 (h) (agonist radioligand) (Homo sapiens, UniProt P17787+P43681); assay: SafetyScreen87 panel; conditions: 1.0E-06 M; mean; read-out: % Inhibition of Control Specific Binding (1st, 2nd, Mean)
T6 construct: purchased DiscoverX KINOMEscan scanEDGE; Eurofins Cerep SafetyScreen87
T6 sequence (P43681 29-627 limits assumed): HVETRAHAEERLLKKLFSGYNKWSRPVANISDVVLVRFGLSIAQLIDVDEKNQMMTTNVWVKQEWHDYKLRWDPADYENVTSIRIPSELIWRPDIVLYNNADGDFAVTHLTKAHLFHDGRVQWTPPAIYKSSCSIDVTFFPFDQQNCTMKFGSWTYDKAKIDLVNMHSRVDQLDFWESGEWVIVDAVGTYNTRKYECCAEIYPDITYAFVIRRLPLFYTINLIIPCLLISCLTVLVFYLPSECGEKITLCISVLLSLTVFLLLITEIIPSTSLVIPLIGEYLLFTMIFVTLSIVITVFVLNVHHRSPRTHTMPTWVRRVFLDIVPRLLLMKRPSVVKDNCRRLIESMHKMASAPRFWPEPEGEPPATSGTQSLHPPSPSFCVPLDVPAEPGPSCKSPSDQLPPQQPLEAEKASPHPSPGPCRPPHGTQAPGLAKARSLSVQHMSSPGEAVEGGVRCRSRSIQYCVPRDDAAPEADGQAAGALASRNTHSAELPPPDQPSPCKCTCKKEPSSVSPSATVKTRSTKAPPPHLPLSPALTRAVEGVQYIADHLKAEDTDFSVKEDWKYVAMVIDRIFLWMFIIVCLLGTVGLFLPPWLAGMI
T6 sequence (P17787 26-502): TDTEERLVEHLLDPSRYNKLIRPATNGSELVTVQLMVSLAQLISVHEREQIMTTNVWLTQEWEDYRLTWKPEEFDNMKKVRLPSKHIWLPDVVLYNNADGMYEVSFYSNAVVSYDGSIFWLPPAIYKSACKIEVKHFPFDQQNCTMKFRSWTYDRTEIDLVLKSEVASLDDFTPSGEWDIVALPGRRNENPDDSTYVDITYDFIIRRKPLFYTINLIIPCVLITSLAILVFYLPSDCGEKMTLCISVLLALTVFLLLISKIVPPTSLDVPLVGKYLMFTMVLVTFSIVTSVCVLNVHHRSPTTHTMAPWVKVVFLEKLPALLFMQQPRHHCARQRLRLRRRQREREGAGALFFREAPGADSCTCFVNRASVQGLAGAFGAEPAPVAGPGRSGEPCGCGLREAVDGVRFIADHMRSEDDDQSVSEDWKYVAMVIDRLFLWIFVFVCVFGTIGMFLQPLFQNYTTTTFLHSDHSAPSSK
Protocol: as §1

[8] = biological target: T7, Potassium Channel hERG (human)- [3H] Dofetilide (Homo sapiens, UniProt Q12809); assay: SafetyScreen87 panel; conditions: 1.0E-06 M, read-out: % Inhibition of Control Specific Binding (1st, 2nd, Mean)
T7 construct: Eurofins Discovery (Cerep, France) SafetyScreen87 panel
T7 sequence (Q12809 whole entry): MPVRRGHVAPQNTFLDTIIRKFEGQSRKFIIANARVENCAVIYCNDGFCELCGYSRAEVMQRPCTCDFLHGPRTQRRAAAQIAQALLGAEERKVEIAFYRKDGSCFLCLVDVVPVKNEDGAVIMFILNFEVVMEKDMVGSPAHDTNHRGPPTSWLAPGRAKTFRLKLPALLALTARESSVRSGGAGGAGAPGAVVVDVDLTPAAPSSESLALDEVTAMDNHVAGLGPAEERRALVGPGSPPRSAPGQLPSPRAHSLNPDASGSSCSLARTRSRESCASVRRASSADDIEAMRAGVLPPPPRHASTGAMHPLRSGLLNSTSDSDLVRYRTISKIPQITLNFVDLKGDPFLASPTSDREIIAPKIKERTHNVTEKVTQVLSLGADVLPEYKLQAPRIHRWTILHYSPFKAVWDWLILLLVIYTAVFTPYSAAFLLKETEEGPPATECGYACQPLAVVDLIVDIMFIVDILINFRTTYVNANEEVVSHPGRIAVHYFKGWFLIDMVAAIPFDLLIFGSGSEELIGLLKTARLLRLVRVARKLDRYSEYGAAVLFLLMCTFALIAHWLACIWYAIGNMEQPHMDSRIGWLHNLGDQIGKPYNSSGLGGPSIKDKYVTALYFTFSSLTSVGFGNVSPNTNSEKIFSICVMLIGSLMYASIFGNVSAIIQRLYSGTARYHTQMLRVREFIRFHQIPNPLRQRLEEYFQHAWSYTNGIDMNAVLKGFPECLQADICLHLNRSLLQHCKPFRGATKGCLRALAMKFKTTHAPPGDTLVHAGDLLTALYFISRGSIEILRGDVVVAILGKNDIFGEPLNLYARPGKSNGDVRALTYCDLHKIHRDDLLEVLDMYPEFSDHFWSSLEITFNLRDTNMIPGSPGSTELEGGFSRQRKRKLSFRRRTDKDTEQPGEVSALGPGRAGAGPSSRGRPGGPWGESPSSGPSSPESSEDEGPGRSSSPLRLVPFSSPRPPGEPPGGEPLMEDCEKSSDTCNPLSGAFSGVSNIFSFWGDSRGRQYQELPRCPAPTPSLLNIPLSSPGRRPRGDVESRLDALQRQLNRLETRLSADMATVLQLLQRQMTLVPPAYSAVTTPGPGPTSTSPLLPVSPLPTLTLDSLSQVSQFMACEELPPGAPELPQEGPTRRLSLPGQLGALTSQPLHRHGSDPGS
Protocol: as §1

[9] = biological target: T8, alpha 2B (h) (antagonist radioligand) (Homo sapiens, UniProt P18089); assay: SafetyScreen87 panel; conditions: 1.0E-06 M, read-out: % Inhibition of Control Specific Binding (1st, 2nd, Mean)
T8 construct: purchased DiscoverX KINOMEscan scanEDGE; Eurofins Cerep SafetyScreen87
T8 sequence (P18089 whole entry): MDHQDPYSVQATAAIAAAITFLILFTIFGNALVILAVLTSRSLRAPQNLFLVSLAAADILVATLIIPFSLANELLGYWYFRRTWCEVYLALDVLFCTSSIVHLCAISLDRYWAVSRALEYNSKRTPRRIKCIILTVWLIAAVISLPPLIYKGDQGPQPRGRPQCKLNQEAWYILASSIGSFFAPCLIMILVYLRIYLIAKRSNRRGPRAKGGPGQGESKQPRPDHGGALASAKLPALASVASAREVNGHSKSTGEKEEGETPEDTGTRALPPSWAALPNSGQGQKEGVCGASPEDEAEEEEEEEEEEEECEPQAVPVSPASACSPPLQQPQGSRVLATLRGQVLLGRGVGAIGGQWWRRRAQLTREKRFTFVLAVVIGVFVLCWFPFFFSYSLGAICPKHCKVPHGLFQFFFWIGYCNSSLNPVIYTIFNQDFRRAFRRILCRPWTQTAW
Protocol: as §1

[10] = biological target: T9, 5-HT2B (h) (agonist radioligand) (Homo sapiens, UniProt P41595); assay: SafetyScreen87 panel; conditions: 1.0E-06 M; mean; read-out: % Inhibition of Control Specific Binding (1st, 2nd, Mean)
T9 construct: purchased DiscoverX KINOMEscan scanEDGE; Eurofins Cerep SafetyScreen87
T9 sequence (P41595 whole entry): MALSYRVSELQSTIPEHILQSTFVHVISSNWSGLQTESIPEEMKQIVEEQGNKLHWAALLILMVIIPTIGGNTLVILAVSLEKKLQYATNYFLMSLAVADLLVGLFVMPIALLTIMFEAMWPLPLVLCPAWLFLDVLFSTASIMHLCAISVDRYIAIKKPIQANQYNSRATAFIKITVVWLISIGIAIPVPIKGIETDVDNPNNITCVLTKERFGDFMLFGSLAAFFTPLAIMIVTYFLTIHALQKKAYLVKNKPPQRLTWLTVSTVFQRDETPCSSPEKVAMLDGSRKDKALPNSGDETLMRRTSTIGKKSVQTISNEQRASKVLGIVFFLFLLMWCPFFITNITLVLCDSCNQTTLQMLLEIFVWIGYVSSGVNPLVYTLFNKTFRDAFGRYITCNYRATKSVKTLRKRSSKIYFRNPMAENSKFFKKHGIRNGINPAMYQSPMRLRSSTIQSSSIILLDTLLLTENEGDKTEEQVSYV
Protocol: as §1

[11] = test system: Ca2+ channel (L, diltiazem site) (benzothiazepines) (antagonist radioligand); assay: SafetyScreen87 panel; conditions: 1.0E-06 M, read-out: % Inhibition of Control Specific Binding (1st, 2nd, Mean)
Protocol: as §1

[12] = biological target: T10, GR (h) (agonist radioligand) (Homo sapiens, UniProt P04150); assay: SafetyScreen87 panel; conditions: 1.0E-06 M; mean; read-out: % Inhibition of Control Specific Binding (1st, 2nd, Mean)
T10 construct: purchased DiscoverX KINOMEscan scanEDGE; Eurofins Cerep SafetyScreen87
Protocol: as §1

[13] = test system: KV channel (antagonist radioligand); assay: SafetyScreen87 panel; conditions: 1.0E-06 M, read-out: % Inhibition of Control Specific Binding (1st, 2nd, Mean)
Protocol: as §1

[14] = biological target: T11, N muscle-type (h) (antagonist radioligand) (Homo sapiens, UniProt P02708+P07510+Q07001); assay: SafetyScreen87 panel; conditions: 1.0E-06 M; mean; read-out: % Inhibition of Control Specific Binding (1st, 2nd, Mean)
T11 construct: purchased DiscoverX KINOMEscan scanEDGE; Eurofins Cerep SafetyScreen87
Protocol: as §1

[15] = biological target: T12, AR(h) (agonist radioligand) (Homo sapiens, UniProt P10275, T878A); assay: SafetyScreen87 panel; conditions: 1.0E-06 M; mean; read-out: % Inhibition of Control Specific Binding (1st, 2nd, Mean)
T12 construct: purchased DiscoverX KINOMEscan scanEDGE; Eurofins Cerep SafetyScreen87
T12 sequence (P10275 whole entry T878A): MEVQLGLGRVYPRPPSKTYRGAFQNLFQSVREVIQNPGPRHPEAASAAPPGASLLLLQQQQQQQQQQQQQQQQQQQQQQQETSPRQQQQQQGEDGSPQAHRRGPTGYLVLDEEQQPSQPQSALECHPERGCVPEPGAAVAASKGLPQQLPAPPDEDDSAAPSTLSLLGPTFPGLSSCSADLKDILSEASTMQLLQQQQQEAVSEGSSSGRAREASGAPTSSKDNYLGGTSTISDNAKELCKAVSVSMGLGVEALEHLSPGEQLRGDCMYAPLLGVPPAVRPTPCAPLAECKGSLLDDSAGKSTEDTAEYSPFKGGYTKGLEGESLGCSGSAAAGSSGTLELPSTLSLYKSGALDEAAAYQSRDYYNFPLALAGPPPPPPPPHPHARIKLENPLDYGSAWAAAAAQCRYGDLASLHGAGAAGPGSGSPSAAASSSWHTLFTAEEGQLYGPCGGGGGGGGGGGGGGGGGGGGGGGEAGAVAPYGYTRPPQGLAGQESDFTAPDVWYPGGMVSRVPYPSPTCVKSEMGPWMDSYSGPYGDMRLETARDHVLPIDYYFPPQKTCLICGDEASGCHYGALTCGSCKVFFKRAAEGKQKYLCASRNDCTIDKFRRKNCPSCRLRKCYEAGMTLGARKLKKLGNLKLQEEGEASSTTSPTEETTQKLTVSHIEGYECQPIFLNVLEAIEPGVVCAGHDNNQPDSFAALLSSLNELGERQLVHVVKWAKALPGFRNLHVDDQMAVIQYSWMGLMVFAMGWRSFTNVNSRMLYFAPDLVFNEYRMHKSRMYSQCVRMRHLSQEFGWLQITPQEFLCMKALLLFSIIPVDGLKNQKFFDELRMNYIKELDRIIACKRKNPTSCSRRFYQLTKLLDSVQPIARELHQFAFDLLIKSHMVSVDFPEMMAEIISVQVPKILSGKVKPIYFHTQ
Protocol: as §1

In the case of `CNc1ccc(NCCc2ccccc2OC)cc1.Cl` [KDS12025, N^1-(2-methoxyphenethyl)-N^4-methylbenzene-1,4-diamine hydrochloride salt], the “tonic GABA current, granule cells” value (APP/PS1 mice; 3mpk i.p.) is reported as 4.160±0.8926, the sIPSC amplitude (APP/PS1 mice; 3mpk i.p.) is reported as 36.09±4.601 and the sIPSC frequency (APP/PS1 mice; 3mpk i.p.) is reported as 1.355±0.2694. The “tonic GABA current, granule cells” value (APP/PS1 mice; 10mpk i.p.) was 3.113±0.7279, the sIPSC amplitude (APP/PS1 mice; 10mpk i.p.) was 26.02±1.734 and the sIPSC frequency (APP/PS1 mice; 10mpk i.p.) was 1.177±0.5985. The “spike probability across stimulation intensities” value (APP/PS1 mice; 100–1000 μA, 3 mg/kg/day ad libitum, Fig. 5l left) was 0.7455±0.1216, the activity [1] was 79.7% and the activity ([2]; 1.0E-06 M; read-out: % Inhibition of Control Specific Binding (1st, 2nd, Mean)) was 83.3%. For the same compound, the activity ([2]; read-out: % Inhibition of Control Specific Binding (1st, 2nd, Mean); 1.0E-06 M) was 91.8%, the activity ([3]; mean) was 90.7% and the activity [3] was 90.3% and 91.2%. For the same compound, the activity [4] was 104%, the activity ([5]; mean) was 96% and the activity [5] was 101% and 91.1%. The activity [6] was 87.1%, the activity [7] was 98.4% and the activity ([8]; mean) was 68.5%. For the same compound, the activity [8] was 66.8%, the activity ([9]; mean) was 84.2% and the activity [9] was 81.9% and 86.6%. For the same compound, the activity [10] was 63.9%, the activity ([11]; mean) was 84.9% and the activity [11] was 88.1% and 81.7%. The activity [12] was 104%, the activity ([13]; mean) was 96.5% and the activity [13] was 85.3% and 108%. For the same compound, the activity [14] was 74.3% and the activity [15] was 90.9%.
